# Laboratory results: ChEMBL document CHEMBL2346618, “Synthesis and evaluation against hepatitis C virus of 7-deaza analogues of 2'-C-methyl-6-O-methyl guanosine nucleoside and L-Alanine ester phosphoramidates” (Bioorg Med Chem Lett, 2013)
# Key:
# [1] = test system: Hepatitis C virus; test: Antiviral activity against Hepatitis C virus assessed as inhibition of viral replication; type: functional, organism-based, Hepacivirus hominis
# [2] = (§1) Cytotoxicity against human HuH7 cells; type: cell-based, Huh-7; conditions: HuH7 cells
# [3] = test system: Huh-7; test: Prodrug activation in human HuH7 cell lysate assessed as formation of ((2R,3R,4R,5R)-5-(2-amino-4-methoxy-7H-pyrrolo[2,3-d]pyrimidin-7-yl)-3,4-dihydroxy-4-methyltetrahydrofuran-2-yl)methyl dihydrogen phosphate by NMR assay; type: cell-based
# [4] = test system: Huh-7; test: Prodrug activation in human HuH7 cell lysate assessed as formation of ((2R,3R,4R,5R)-5-(2-amino-4-methoxy-7H-pyrrolo[2,3-d]pyrimidin-7-yl)-3,4-dihydroxy-4-methyltetrahydrofuran-2-yl)methyl dihydrogen phosphate after 48 hrs by NMR assay; type: cell-based; conditions: huh-7, 48 h
# [5] = Prodrug activation in trizma buffer assessed as formation of (2S)-2-((((2R,3R,4R,5R)-5-(2-amino-4-methoxy-7H-pyrrolo[2,3-d]pyrimidin-7-yl)-3,4-dihydroxy-4-methyltetrahydrofuran-2-yl)methoxy)(hydroxy)phosphorylamino)propanoic acid by NMR assay in presence of carboxypeptidase Y
# [6] = Prodrug activation in phosphate buffer at pH 7.4 after 4 hrs by UV analysis in presence of calf adenosine deaminase; conditions: pH 7.4, 4 h
# [7] = test system: Huh-7; test: as §1; type: cell-based; conditions: huh-7
EC50 ([1]; Hepatitis C virus) [µM],SMILES,CC50 [2] [µM],further results
–,COc1nc(N)nc2c1ccn2[C@@H]1O[C@H](COP(=O)(O)O)[C@@H](O)[C@@]1(C)O,–,Drug metabolism [3]: Active
27.3,COc1nc(N)nc2c1ccn2[C@@H]1O[C@H](COP(=O)(N[C@@H](C)C(=O)OCc2ccccc2)Oc2cccc3ccccc23)[C@@H](O)[C@@]1(C)O (some centres undefined),27,–
12.9,COc1nc(N)nc2c1ccn2[C@@H]1O[C@H](COP(=O)(N[C@@H](C)C(=O)OCC(C)(C)C)Oc2cccc3ccccc23)[C@@H](O)[C@@]1(C)O (some centres undefined),27,Drug metabolism [4]: Not Active; Drug metabolism [5]: Active
> 100,COc1nc(N)nc2c1ccn2[C@@H]1O[C@H](CO)[C@@H](O)[C@@]1(C)O,> 100,Stability [6]: Stable
–,"COc1nc(N)nc2c1ccn2[C@@H]1O[C@H](COP(=O)(N[C@@H](C)C(=O)OC2CCCCC2)Oc2cccc3ccccc23)[C@@H](O)[C@@]1(C)O (single isomer, unassigned; fast eluting)",–,EC50 [1]: 13.3 µM; CC50 [7]: 18 µM
8.9,"COc1nc(N)nc2c1ccn2[C@@H]1O[C@H](COP(=O)(N[C@@H](C)C(=O)OC2CCCCC2)Oc2cccc3ccccc23)[C@@H](O)[C@@]1(C)O (single isomer, unassigned; slow eluting)",13,–
3,COc1nc(N)nc2c1ncn2[C@@H]1O[C@H](CO)[C@@H](O)[C@@]1(C)O [BETA-2'-C-METHYL-6-O-METHYL GUANOSINE],> 100,–

SMILES,EC50 ([1]; Hepatitis C virus) [µM],CC50 [2] [µM],further results
COc1nc(N)nc2c1ncn2[C@@H]1O[C@H](COP(=O)(N[C@@H](C)C(=O)OCc2ccccc2)Oc2cccc3ccccc23)[C@@H](O)[C@@]1(C)O (some centres undefined),0.02,11,–
COc1nc(N)nc2c1ncn2[C@@H]1O[C@H](COP(=O)(N[C@@H](C)C(=O)OC2CCCCC2)Oc2cccc3ccccc23)[C@@H](O)[C@@]1(C)O (some centres undefined),0.03,6,–
C[C@@]1(O)[C@H](O)[C@@H](CO)O[C@H]1n1ccc2c(N)ncnc21 [BETA-2'-C-METHYL-7-DEAZA-ADENOSINE],0.25,> 100,–
COc1nc(N)nc2c1ncn2[C@@H]1O[C@H](COP(=O)(N[C@@H](C)C(=O)OCC(C)(C)C)Oc2cccc3ccccc23)[C@@H](O)[C@@]1(C)O (some centres undefined) [BMS-986094],0.01,6,–
